Laboratory results published in US5591741A, “Fungicidal spiroheterocyclic derivatives” (American Cyanamid Company, priority 1993, dated 1997).

What was measured:
Leptosphaeria nodorum = test: Activity against wheat leafspot (LN); format: in vivo; settings: direct therapeutic foliar spray, 600 ppm, 6-8 days
In short: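 Therapeutic foliar spray: compound at 600 ppm applied to single-leaf wheat (cv Norman) 24 h after inoculation with 1.5×10^6 conidia/ml. Disease control scored after 6-8 days at 22° C and 70% humidity as lesions per leaf versus untreated or diluent-sprayed controls.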

Pyricularia oryzae = format: in vivo; settings: rice seedlings, direct therapeutic foliar spray, 600 ppm, 4-5 days
Rhizoctonia solani = test: Activity against Rhizoctonia in-vitro (RSI); format: cell-based; settings: 10 ppm, 10 days, 20° C., mycelial growth
In short: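 Compound at a final 10 ppm (acetone vehicle) in half-strength PDB, inoculated with 5×10^4 fragments/ml of shaken-culture R. solani mycelium. After incubation at 20° C for 10 days, growth scored as a rating versus untreated or diluent-treated controls.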

Botrytis cinerea = test: Direct protectant activity against broad bean grey mould (BCB); format: in vivo; settings: direct protectant foliar spray, 600 ppm, 4 days
In short: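 Protectant foliar test: lesion coverage assessed 4 days after inoculation and rated relative to untreated or diluent-sprayed plants. Compound applied at 600 ppm to cv The Sutton leaves 24 h before 10^6 conidia/ml suspension; incubation at 22 °C in high humidity.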

Alternaria solani = test: Activity against tomato early blight (AS); format: in vivo; settings: Table VI; tomato seedlings, contact prophylactic foliar spray, 4 days
In short: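 Plants were challenged with A. solani conidia (10^4 spores/ml) 24 h after a protective foliar spray of compound in 50:50 acetone/water plus 0.04% Tween 20. Held humid at 21° C for 4 days, then percent leaf area with lesions was scored as a rating relative to controls.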

Phytophthora infestans = format: in vivo; settings: tomato, direct protectant foliar spray
[1] = system: Pseudocercosporella herpotrichoides; test: Activity against wheat eyespot in-vitro (PHI); format: cell-based; settings: 10 ppm, 10 days, 20° C., mycelial growth
In short: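 Mycelial growth was scored after 10 days at 20 °C against untreated or diluent controls. The broth was half-strength potato dextrose, holding 10 ppm test compound (from acetone) and 5×10^4 fragments/ml of the eyespot fungus.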

Venturia inaequalis = test: Activity against apple scab in-vitro (VII); format: cell-based; settings: 10 ppm, 10 days, 20° C., mycelial growth
In short: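 V. inaequalis propagules (5×10^4/ml, malt agar-grown) were exposed in half-strength PDB to 10 ppm final test compound delivered in acetone. Growth was scored after incubation for 10 days at 20° C, as a rating relative to untreated or diluent-sprayed controls.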

[2] = system: Erysiphe graminis f.sp. hordei; test: Activity against barley powdery mildew, direct therapeutic (EGT); format: in vivo; settings: direct therapeutic foliar spray, 600 ppm, up to 7 days
In short: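 A curative spray at 600 ppm was applied to single-leaf Golden Promise barley inoculated with powdery mildew conidia the previous day. After up to 7 days at 18 °C and 40% humidity, disease control was rated from percent leaf area sporulating relative to untreated or diluent-sprayed controls.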

Plasmopara viticola = test: Antisporulant activity against vine downy mildew (PVA); format: in vivo; settings: vine leaves, antisporulant foliar spray, 600 ppm, 750 l/ha
In short: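 Cabernet Sauvignon vines (~8 cm) inoculated on lower leaf surfaces with 5×10^4 zoosporangia/ml, held 24 h at 21° C high humidity then 24 h glasshouse. Infected leaves sprayed underside with 600 ppm compound in 1:1 water/acetone, 0.04% Tween 20, 750 l/ha; 96 h glasshouse, 24 h humidity. Sporulating leaf area rated versus control.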

[3] = system: Erysiphe graminis f.sp. hordei; test: Direct protectant activity against barley powdery mildew (EGP); format: in vivo; settings: direct protectant foliar spray, 8 days
In short: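 Rating reflects percentage of leaf area with sporulation compared with untreated or diluent-sprayed controls. Protectant spray was applied to single-leaf barley (cv Golden Promise) 24 h before conidia inoculation. Plants were kept at 18 °C and 40% RH throughout, with 8 days of disease development.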

| SMILES | disease control rating LN (Leptosphaeria nodorum) | disease control rating PO (Pyricularia oryzae) | disease control rating RSI (Rhizoctonia solani) | disease control rating BCB (Botrytis cinerea) | disease control rating AS (Alternaria solani) | disease control rating PIP (Phytophthora infestans) | disease control rating PHI [1] | disease control rating VII (Venturia inaequalis) | disease control rating EGT [2] | disease control rating PVA (Plasmopara viticola) | disease control rating EGP [3] |
| --- | --- | --- | --- | --- | --- | --- | --- | --- | --- | --- | --- |
| CC(C)(C)C1CCC2(CC1)CC(NCCC1=CCCCC1)CO2 (stereo not shown) [Compound 108] | 0 (less than 50% disease control) | 0 (less than 50% disease control) | 1 (about 50-80% disease control) | 2 (greater than 80% disease control) | 0 (less than 50% disease control) | 2 (greater than 80% disease control) | 1 (about 50-80% disease control) | 1 (about 50-80% disease control) | 2 (greater than 80% disease control) | 0 (less than 50% disease control) | 2 (greater than 80% disease control) |
| CC(C)(C)C1CCC(NC2COC3(CCC(C(C)(C)C)CC3)C2)CC1 (stereo not shown) [Compound 109] | 0 (less than 50% disease control) | 0 (less than 50% disease control) | 1 (about 50-80% disease control) | 2 (greater than 80% disease control) | 1 (about 50-80% disease control) | 2 (greater than 80% disease control) | 1 (about 50-80% disease control) | 2 (greater than 80% disease control) | 2 (greater than 80% disease control) | 0 (less than 50% disease control) | 2 (greater than 80% disease control) |
| CC(C)CC(C)NC1COC2(CCC(C(C)(C)C)CC2)C1 (stereo not shown) [Compound 110] | 0 (less than 50% disease control) | 0 (less than 50% disease control) | 1 (about 50-80% disease control) | 1 (about 50-80% disease control) | 0 (less than 50% disease control) | 2 (greater than 80% disease control) | 1 (about 50-80% disease control) | 1 (about 50-80% disease control) | 2 (greater than 80% disease control) | 0 (less than 50% disease control) | 2 (greater than 80% disease control) |
| CC(C)(C)CCNC1COC2(CCC(C(C)(C)C)CC2)C1 (stereo not shown) [Compound 111] | 0 (less than 50% disease control) | 0 (less than 50% disease control) | 1 (about 50-80% disease control) | 1 (about 50-80% disease control) | 0 (less than 50% disease control) | 2 (greater than 80% disease control) | 0 (less than 50% disease control) | 1 (about 50-80% disease control) | 2 (greater than 80% disease control) | 0 (less than 50% disease control) | 2 (greater than 80% disease control) |
| CCC(C)CC(C)NC1COC2(CCC(C(C)(C)C)CC2)C1 (stereo not shown) [Compound 112] | 0 (less than 50% disease control) | 0 (less than 50% disease control) | 1 (about 50-80% disease control) | 0 (less than 50% disease control) | 0 (less than 50% disease control) | 2 (greater than 80% disease control) | 1 (about 50-80% disease control) | 1 (about 50-80% disease control) | 2 (greater than 80% disease control) | 0 (less than 50% disease control) | 2 (greater than 80% disease control) |
| C1CCC2CN(C3COC4(C3)C3CC5CC(C3)CC4C5)CCC2C1 (stereo not shown) [Compound 113] | 0 (less than 50% disease control) | 0 (less than 50% disease control) | 0 (less than 50% disease control) | 1 (about 50-80% disease control) | 0 (less than 50% disease control) | 1 (about 50-80% disease control) | 0 (less than 50% disease control) | 1 (about 50-80% disease control) | 0 (less than 50% disease control) | 0 (less than 50% disease control) | 1 (about 50-80% disease control) |
| CC(C)(C)C1CCC2(CC1)CC(N1CCc3ccccc3C1)CO2 (stereo not shown) [Compound 114] | 0 (less than 50% disease control) | 0 (less than 50% disease control) | 0 (less than 50% disease control) | 2 (greater than 80% disease control) | 1 (about 50-80% disease control) | 2 (greater than 80% disease control) | 0 (less than 50% disease control) | 1 (about 50-80% disease control) | 2 (greater than 80% disease control) | 0 (less than 50% disease control) | 2 (greater than 80% disease control) |
| CCCCCCCCNC1COC2(C1)C1CC3CC(C1)CC2C3 (stereo not shown) [Compound 115] | 0 (less than 50% disease control) | 0 (less than 50% disease control) | 0 (less than 50% disease control) | 0 (less than 50% disease control) | 0 (less than 50% disease control) | 1 (about 50-80% disease control) | 1 (about 50-80% disease control) | 2 (greater than 80% disease control) | 2 (greater than 80% disease control) | 0 (less than 50% disease control) | 2 (greater than 80% disease control) |
